This is an account of results in US10087144B2, “Agents for use in the treatment of cardiovascular and inflammatory diseases structurally based on 4(1 H)-quinolone” (UCL Business PLC, priority 2015, dated 2018).

pEC50: −log10 of the molar value. Read-outs that look alike come from different tables or passages of the source. A value given as a limit tells only on which side of the number the result lay.

Experiment [1] concerns rat mesenteric artery smooth muscle cells. Put plainly: Ca2+ flux in response to Angiotensin II in isolated rat mesenteric artery smooth muscle cells (FLIPR). In kind it is cell-based. The note with it: for inhibition at 1 µM / inhibition at 10 µM: Rattus norvegicus; for inhibition at 1 µM: read-out: % inhibition 1 μM; for inhibition at 10 µM: read-out: % inhibition 10 μM. On the procedure: Mesenteric artery smooth muscle cells were isolated from male Sprague-Dawley rats (200-250 g). Mesenteric arteries were dissected, cleared of extraneous tissue and incubated in an enzyme solution containing collagenase type I (1 mg/ml), soybean trypsin inhibitor (0.25 mg/ml), bovine albumin (1 mg/ml), CaCl2 (0.2 mM), 100 U/ml penicillin (100 U/ml) and streptomycin (100 μg/ml) in a humidified incubator with 5% CO2 in air. The enzyme solution was replenished at 30 min intervals and cells were pelleted by centrifugation (200 g, 5 min) and differentially plated (×2) for 15 min in Dulbecco's Modified Eagle's Medium (DMEM) supplemented with penicillin (100 U/ml), streptomycin (100 μg/ml), L-Glutamine (2 mM) and 10% heat inactivated New Zealand foetal calf serum. Cells were passaged by trypsinisation and viability determined by trypan blue exclusion.
Measurements of Ca^2+ flux in response to Angiotensin II were conducted using a Fluorescent Imaging Plate Reader (FLIPR; Molecular Devices). Cells were plated at a density of 10,000 cells/well into black, clear-bottomed 96-well plates in DMEM supplemented with penicillin (100 U/ml), streptomycin (100 μg/ml), L-Glutamine (2 mM) and 10% heat inactivated New Zealand foetal calf serum. 24 hrs later the cells were incubated with Fluo-3-AM (4 μM) for 60 min at 37° C. Once dye-loaded, the cells were washed thoroughly with the proprietary assay buffer to remove any unincorporated dye. The cells were then incubated with varying concentrations of a number of representative NPR-C agonist molecules of the invention, C-type natriuretic peptide or vehicle (DMSO) and placed into the FLIPR. After 15 mins, Angiotensin II (100 nM) was automatically dispensed into each well and the fluorescence signal followed for 5 mins. Potency was determined by comparison of the peak fluorescence in each test well (run in triplicate) with that of the control (Angiotensin II alone). Background fluorescence (assay buffer only) was subtracted from all values.
For orientation: Calcium assays in cells follow changes in intracellular calcium, usually with a dye or a luminescent sensor.

The test system of a further experiment is rat mesenteric arteries. Kind of experiment: Vasoreactivity in rat mesenteric arteries in vitro (relaxation of U46619-contracted vessels, tension myograph). On the procedure: Male rats (Sprague-Dawley; 200-250 g) were stunned and killed by cervical dislocation. The mesentery was removed and third-order arteries mounted in an automated tension myograph (Danish Myotechnology). After an equilibration period of 45 min, vessels were normalized and diameter determined. Following normalization, each vessel was contracted repeatedly with the thromboxane A2-mimetic 9,11-dideoxy-11^α,9^α-epoxymethano-prostaglandin F2α (U46619; 1 μM) until the response was reproducible. The vessels were then washed to restore basal tone before contracting to approximately 50% of the maximum U46619-induced response. Once a stable response to U46619 was achieved, cumulative concentration-response curves were constructed with a variety of NPR-C agonists of the invention at varying concentrations (0.001-30 μM), or vehicle (DMSO). In some studies, concentration-response curves to NPR-C agonists were conducted in the presence of the NPR-C antagonist M372049 (10 μM). Only one curve to any one agonist was constructed in any single tissue.

The mark [2] stands for this setting: 1 μM compound, inhibition of Angiotensin II (100 nM) Ca2+ flux peak fluorescence.
The mark [3] stands for this setting: 10 μM compound, inhibition of Angiotensin II (100 nM) Ca2+ flux peak fluorescence.

A word on the inhibition: it is how much of the control response was suppressed. For the compound `CC(C)[C@H](NC(=O)c1cn(Cc2ccccc2)c2ccc(Br)cc2c1=O)C(=O)OC(C)(C)C` [Compound 63, (S)-tert-butyl 2-(1-benzyl-6-bromo-4-oxo-1,4-dihydroquinoline-3-carboxamido)-3-methylbutanoate], the inhibition at 1 µM in experiment [1] (setting [2]) came out at 58%. Further, the inhibition at 10 µM in experiment [1] (setting [3]) was determined as 100%.
Turning to `CC(C)[C@H](NC(=O)c1cn(Cc2ccccc2)c2ccccc2c1=O)C(=O)OC(C)(C)C` [Compound 88, (S)-tert-butyl 2-(1-benzyl-4-oxo-1,4-dihydroquinoline-3-carboxamido)-3-methylbutanoate], the inhibition at 1 µM in experiment [1] (setting [2]) stood at 12%. Further, in experiment [1] (setting [3]), the inhibition at 10 µM is 55%.
As to `CC(C)c1cccc2c(=O)c(C(=O)O)c[nH]c12` [Compound 103], in experiment [1] (setting [2]), the “% inhibition 1 μM” value worked out at 0%. For the same compound, the “% inhibition 10 μM” value in experiment [1] (setting [3]) was found to be 65%.
On to `CC(C)(C)OC(=O)CNC(=O)c1cn(Cc2ccccc2)c2ccc(Br)cc2c1=O` [Compound 62], for which, in experiment [1] (setting [2]), the “% inhibition 1 μM” value came to 0%. Moreover, the “% inhibition 10 μM” value in experiment [1] (setting [3]) is 50%.
As for `CCOC(=O)c1cn(Cc2ccccc2)c2ccccc2c1=O` [Compound 85, ethyl 1-benzyl-4-oxo-1,4-dihydroquinoline-3-carboxylate], the inhibition at 1 µM in experiment [1] (setting [2]) stood at 0%. The inhibition at 10 µM in experiment [1] (setting [3]) amounted to 97%.
In the case of `CN(C)c1ccc2[nH]cc(C(=O)O)c(=O)c2c1` [Compound 108], the “% inhibition 1 μM” value in experiment [1] (setting [2]) turned out to be 0%. In experiment [1] (setting [3]), the “% inhibition 10 μM” value came out at 90%.
On to `CC1CCc2c(N3CCC(O)CC3)c(F)c(N)c3c(=O)c(C(=O)O)cn1c23` (stereo not shown) [Compound 142], for which the “% inhibition 1 μM” value in experiment [1] (setting [2]) is listed as 18%. Also, the “% inhibition 10 μM” value in experiment [1] (setting [3]) amounted to 75%.
For `CC(=O)c1ccc2[nH]cc(C(=O)O)c(=O)c2c1` [Compound 105] the same measures were 80% and 100%.
As for `CN1CCN(c2cc3c(cc2F)c(=O)c(C(=O)O)cn3-c2ccc(F)cc2)CC1` [Compound 144], the “% inhibition 1 μM” value in experiment [1] (setting [2]) is reported as 23%. Moreover, the “% inhibition 10 μM” value in experiment [1] (setting [3]) is on record as 40%.
Turning to `Cc1ccc2[nH]cc(C(=O)O)c(=O)c2c1` [Compound 112], the “% inhibition 1 μM” value in experiment [1] (setting [2]) stood at 100%. In addition, the “% inhibition 10 μM” value in experiment [1] (setting [3]) turned out to be 100%.
Regarding `CC1COc2c(N3CCN(C)CC3)c(F)cc3c(=O)c(C(=O)O)cn1c23` (stereo not shown) [Compound 136], the “% inhibition 1 μM” value in experiment [1] (setting [2]) came out at 15%. The “% inhibition 10 μM” value in experiment [1] (setting [3]) was 20%.
A word on the pEC50: it is −log10 of the EC50, conventionally taken in molar units. For `O=C(O)CNC(=O)c1cn(Cc2ccccc2)c2ccccc2c1=O` [Compound 117, 2-(1-benzyl-4-oxo-1,4-dihydroquinoline-3-carboxamido)acetic acid], the inhibition at 1 µM in experiment [1] (setting [2]) is 87%; in the experiment on rat mesenteric arteries (Rattus norvegicus, 1 μM, U46619-contracted third-order arteries) it was 0%. For the same compound, the inhibition at 10 µM was 100% in experiment [1] (setting [3]) and 2% with rat mesenteric arteries (Rattus norvegicus, 10 μM, U46619-contracted third-order arteries). The compound also yielded an inhibition at 3 µM in the experiment with rat mesenteric arteries (Rattus norvegicus, 3 μM, U46619-contracted third-order arteries) of 0%. Besides, the inhibition at 30 µM with rat mesenteric arteries (Rattus norvegicus, 30 μM, U46619-contracted third-order arteries) was 42%. The pEC50 in the experiment with rat mesenteric arteries (Rattus norvegicus, vasorelaxation, calculated from concentration-response curves) was less than 4.30.
Consider `CC1COc2c(N3CCN(C)CC3)c(F)cc3c(=O)c(C(=O)O)cn1c23` (stereo not shown) [Compound 138], for which, in experiment [1] (setting [2]), the “% inhibition 1 μM” value worked out at 11%. Also, in experiment [1] (setting [3]), the “% inhibition 10 μM” value was found to be 40%.
Turning to `Cc1cccc2c(=O)c(C(=O)O)c[nH]c12` [Compound 107], in experiment [1] (setting [2]), the “% inhibition 1 μM” value is 15%. In addition, the “% inhibition 10 μM” value in experiment [1] (setting [3]) came to 100%.
For `O=C(O)c1cn(C2CC2)c2cc(N3CCNCC3)c(F)cc2c1=O` [Compound 134] the same measures were 55% and 80%.
As to `O=C(O)c1c[nH]c2ccc(Br)cc2c1=O` [Compound 113], in experiment [1] (setting [2]), the “% inhibition 1 μM” value is recorded as 12%. The “% inhibition 10 μM” value in experiment [1] (setting [3]) was determined as 100%.
Turning to `O=C(O)c1c[nH]c2cc(C(F)(F)F)ccc2c1=O` [Compound 110], the “% inhibition 1 μM” value in experiment [1] (setting [2]) is recorded as 70%. Besides, the “% inhibition 10 μM” value in experiment [1] (setting [3]) amounted to 100%.
Take `O=C(O)c1cn(Cc2ccccc2)c2ccccc2c1=O` [Compound 86, 1-benzyl-4-oxo-1,4-dihydroquinoline-3-carboxylic acid]: the inhibition at 1 µM in experiment [1] (setting [2]) came out at 0%. The inhibition at 10 µM in experiment [1] (setting [3]) turned out to be 45%.
In the case of `COc1ccc2[nH]cc(C(=O)O)c(=O)c2c1` [Compound 104], the “% inhibition 1 μM” value in experiment [1] (setting [2]) is listed as 0%. For the same compound, the “% inhibition 10 μM” value in experiment [1] (setting [3]) was 69%.
For `O=C(O)c1ccc2[nH]cc(C(=O)O)c(=O)c2c1` [Compound 111], in experiment [1] (setting [2]), the “% inhibition 1 μM” value is on record as 100%. Also, in experiment [1] (setting [3]), the “% inhibition 10 μM” value was found to be 100%.
Consider `CC(C)C[C@H](NC(=O)c1cn(Cc2ccccc2)c2ccc(Br)cc2c1=O)C(=O)OC(C)(C)C` [Compound 60, (S)-tert-butyl 2-(1-benzyl-6-bromo-4-oxo-1,4-dihydroquinoline-3-carboxamido)-4-methylpentanoate], for which the inhibition at 1 µM in experiment [1] (setting [2]) turned out to be 0%. For the same compound, the inhibition at 10 µM in experiment [1] (setting [3]) came to 80%.
As to `CC(C)(C)OC(=O)CNC(=O)c1cn(Cc2ccccc2)c2ccccc2c1=O` [Compound 87, tert-butyl 2-(1-benzyl-4-oxo-1,4-dihydroquinoline-3-carboxamido)acetate], the inhibition at 1 µM in experiment [1] (setting [2]) was 0%. Also, the inhibition at 10 µM in experiment [1] (setting [3]) is 67%.
In the case of `CC(C)C(NC(=O)c1cn(Cc2ccccc2)c2ccccc2c1=O)C(=O)O` (stereo not shown) [Compound 116], the “% inhibition 1 μM” value in experiment [1] (setting [2]) is 80%. In addition, the “% inhibition 10 μM” value in experiment [1] (setting [3]) was 100%. For the same compound, the “% relaxation 1 μM” value in the experiment with rat mesenteric arteries (1 μM, U46619-contracted third-order arteries) stood at 4%. For the same compound, the “% relaxation 3 μM” value with rat mesenteric arteries (3 μM, U46619-contracted third-order arteries) is on record as 0%. In the experiment on rat mesenteric arteries (10 μM, U46619-contracted third-order arteries), the “% relaxation 10 μM” value is recorded as 0%. Moreover, in the experiment with rat mesenteric arteries (30 μM, U46619-contracted third-order arteries), the “% relaxation 30 μM” value was 9%.
As to `O=C(O)c1c[nH]c2ccccc2c1=O` [Compound 57], in experiment [1] (setting [2]), the “% inhibition 1 μM” value is 0%. Besides, the “% inhibition 10 μM” value in experiment [1] (setting [3]) is 35%.
With `O=C(O)c1cn(Cc2ccccc2)c2ccc(Br)cc2c1=O` [Compound 27, 1-benzyl-6-bromo-4-oxo-1,4-dihydroquinoline-3-carboxylic acid], the inhibition at 1 µM in experiment [1] (setting [2]) stood at 0%. For the same compound, in experiment [1] (setting [3]), the inhibition at 10 µM was 50%.
As for `C[C@H](NC(=O)c1cn(Cc2ccccc2)c2ccc(Br)cc2c1=O)C(=O)OC(C)(C)C` [Compound 59, (S)-tert-butyl 2-(1-benzyl-6-bromo-4-oxo-1,4-dihydroquinoline-3-carboxamido)propanoate], the inhibition at 1 µM in experiment [1] (setting [2]) amounted to 20%. For the same compound, the inhibition at 10 µM in experiment [1] (setting [3]) worked out at 90%.
Consider `C[C@@H]1CN(c2c(F)c(N)c3c(=O)c(C(=O)O)cn(C4CC4)c3c2F)C[C@H](C)N1` [Compound 141], for which the “% inhibition 1 μM” value in experiment [1] (setting [2]) was 0%. Also, in experiment [1] (setting [3]), the “% inhibition 10 μM” value is reported as 28%.
For the compound `O=C(O)c1ccc2c(=O)c(C(=O)O)c[nH]c2c1` [Compound 106], the “% inhibition 1 μM” value in experiment [1] (setting [2]) worked out at 90%. Also, in experiment [1] (setting [3]), the “% inhibition 10 μM” value is given as 90%.
With `O=C(O)c1c[nH]c2c(C(=O)O)cccc2c1=O` [Compound 109], in experiment [1] (setting [2]), the “% inhibition 1 μM” value is reported as 18%. For the same compound, the “% inhibition 10 μM” value in experiment [1] (setting [3]) is reported as 100%.
Consider `CC(C)(C)OC(=O)[C@H](Cc1ccccc1)NC(=O)c1cn(Cc2ccccc2)c2ccc(Br)cc2c1=O` [Compound 61, (S)-tert-butyl 2-(1-benzyl-6-bromo-4-oxo-1,4-dihydroquinoline-3-carboxamido)-3-phenylpropanoate], for which the inhibition at 1 µM in experiment [1] (setting [2]) stood at 27%. The inhibition at 10 µM in experiment [1] (setting [3]) amounted to 100%.
On to `CCOC(=O)c1c[nH]c2ccccc2c1=O` [Compound 84, ethyl 4-oxo-1,4-dihydroquinoline-3-carboxylate], for which, in experiment [1], the inhibition at 1 µM is 40% and the inhibition at 10 µM worked out at 45%.
With `O=C(O)c1c[nH]c2ccc(F)cc2c1=O` [Compound 114], in experiment [1] (setting [2]), the “% inhibition 1 μM” value was 100%. In addition, in experiment [1] (setting [3]), the “% inhibition 10 μM” value worked out at 100%.
